Like-named read-outs stand apart in the source and are kept apart here. One block for each compound: values may come before it.
What was measured:
[1] = test system: hO3 Receptor (Homo sapiens); conditions: for Intrinsic Activity: calculated from the Low/High ratio; for Ratio Low/High: ratio of affinity at low-affinity agonist state to high affinity agonist state; for Ki: read-out: Ki (nM) ± S.D
hO44 Receptor = biological target: T1, hO44 Receptor (Homo sapiens, UniProt P21917); conditions: for Ki / Intrinsic Activity / Ratio Low/High: hO44 Receptor; for Ratio Low/High: ratio of affinity at low-affinity agonist state to high affinity agonist state
T1 sequence (P21917 1-419): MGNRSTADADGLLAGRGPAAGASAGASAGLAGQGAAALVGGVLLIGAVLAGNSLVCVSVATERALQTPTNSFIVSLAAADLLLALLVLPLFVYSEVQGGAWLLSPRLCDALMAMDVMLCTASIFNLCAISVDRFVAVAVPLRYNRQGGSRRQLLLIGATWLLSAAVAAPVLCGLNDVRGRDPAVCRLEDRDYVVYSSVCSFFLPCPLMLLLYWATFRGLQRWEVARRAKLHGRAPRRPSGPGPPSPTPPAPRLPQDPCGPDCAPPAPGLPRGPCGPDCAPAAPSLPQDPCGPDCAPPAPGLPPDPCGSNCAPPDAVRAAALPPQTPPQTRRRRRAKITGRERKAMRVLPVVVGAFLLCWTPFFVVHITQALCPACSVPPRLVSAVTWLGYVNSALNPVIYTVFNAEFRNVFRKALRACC

schizophrenia [2] = test: Clinical antipsychotic efficacy, efficacy tolerance and side effects of dopamine agonists in schizophrenia; type: in vivo, human
[3] = test system: L-DOPA-induced dyskinesia in Parkinson's disease; conditions: cited from earlier work
D2 receptor = D2 receptor (Homo sapiens, UniProt P14416); conditions: for Emax: CHO
[4] = test system: actively psychotic schizophrenic persons; test: Clinical test of (−)-3PPP plus haloperidol in actively psychotic schizophrenic persons, BPRS; type: in vivo, human; conditions: for Change in Total BPRS Score, mean: each arm with haloperidol 1 mg bid
Source text: This combination was designed to produce a lower IA (-)-3PPP, and thereby prolonging its antipsychotic activity. […] This dose of haloperidol may have delivered a measurable antipsychotic effect. […] (Table 5).

hD44 = biological target: T2, hD44 (Homo sapiens, UniProt P21917); test: biochemical
T2 sequence (P21917 1-419): T1 sequence (P21917 1-419)

schizophrenia [5] = conditions: cited from earlier work
hD42 = biological target: T3, hD42 (Homo sapiens, UniProt P21917, DEL265-296); test: biochemical
T3 sequence (P21917 with tags, fused parts or gaps DEL265-296): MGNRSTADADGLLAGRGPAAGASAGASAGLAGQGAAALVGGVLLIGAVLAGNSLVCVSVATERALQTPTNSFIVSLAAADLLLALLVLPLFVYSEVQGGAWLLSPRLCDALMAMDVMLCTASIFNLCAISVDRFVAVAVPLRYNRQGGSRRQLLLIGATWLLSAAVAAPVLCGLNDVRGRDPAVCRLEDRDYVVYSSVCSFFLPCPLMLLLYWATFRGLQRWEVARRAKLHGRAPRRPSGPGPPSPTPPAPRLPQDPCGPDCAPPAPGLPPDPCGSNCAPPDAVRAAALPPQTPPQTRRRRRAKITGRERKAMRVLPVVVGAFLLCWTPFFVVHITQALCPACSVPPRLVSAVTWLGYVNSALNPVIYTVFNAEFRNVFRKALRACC

hD3 (Homo sapiens) = test: Affinity and intrinsic activity, Table 4; type: binding
hD47 = biological target: T4, hD47 (Homo sapiens, UniProt P21917)
T4 sequence (P21917 1-419): T1 sequence (P21917 1-419)

tardive dyskinesia = conditions: clinical pharmacology, in words; cited from earlier work
schizophrenia [6] = conditions: grade symbols, key not given; cited from earlier work
hD21 Receptor = hD21 Receptor (Homo sapiens, UniProt P14416); test: Affinity and intrinsic activity of partial dopamine agonists, Table 3
[7] = calculated from the Low/High ratio

Sequence of D2 receptor (P14416 whole entry): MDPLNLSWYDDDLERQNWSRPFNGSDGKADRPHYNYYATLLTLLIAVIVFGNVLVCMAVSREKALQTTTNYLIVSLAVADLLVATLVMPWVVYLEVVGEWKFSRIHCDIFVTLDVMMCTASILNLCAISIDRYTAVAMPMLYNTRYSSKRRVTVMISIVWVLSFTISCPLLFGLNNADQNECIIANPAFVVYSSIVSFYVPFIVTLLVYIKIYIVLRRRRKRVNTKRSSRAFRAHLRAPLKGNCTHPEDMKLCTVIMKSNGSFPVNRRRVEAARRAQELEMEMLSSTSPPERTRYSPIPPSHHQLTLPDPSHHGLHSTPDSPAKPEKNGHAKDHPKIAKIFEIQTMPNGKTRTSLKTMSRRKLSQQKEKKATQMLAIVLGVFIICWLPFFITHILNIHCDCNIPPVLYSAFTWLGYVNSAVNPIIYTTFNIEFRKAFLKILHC
Sequence of hO3 Receptor (Homo sapiens) (P14416 whole entry): as above
Sequence of hD21 Receptor (P14416 whole entry): as above
Sequence of hD3 (Homo sapiens) (P14416 whole entry): as above

Intrinsic Activity [1]: 81% | Ki (hO44 Receptor; Ki (nM) ± S.D.): 12 ± 6.5 nM | Intrinsic Activity (hO44 Receptor; [7]): 96%
SMILES: CCCN1CCCC(c2cccc(O)c2)C1 (single isomer, unassigned; (+)) [(+)-3-PPP]

Intrinsic Activity [1]: 48% | Ratio Low/High [1]: 10 | Ki [1]: 4.8 ± 2.3 nM | Intrinsic Activity (hO44 Receptor; [7]): 72% | Ratio Low/High (hO44 Receptor): 40 | Ki (hO44 Receptor; read-out: Ki (nM) ± S.D.): 7.7 ± 3.4 nM
SMILES: CCCN(CCc1cccs1)C1CCc2c(O)cccc2C1 (single isomer, unassigned; (+)) [(+)-N-0437]

Emax (D2 receptor; read-out: Intrinsic activity (IA), Example 2): 40% | Emax (D2 receptor; read-out: Intrinsic activity, tested without haloperidol, FIG. 1): 36% | Intrinsic Activity [1]: 46% | Ki (hD44): 13.2 nM | Emax (hD44; read-out: Intrinsic Activity %): 97% | Ki (hD42): 30.9 nM | Emax (hD42; read-out: Intrinsic Activity %): 73% | Ki (hO44 Receptor; Ki (nM) ± S.D.): 12.2 ± 3.1 nM | Emax (hO44 Receptor; read-out: Intrinsic Activity, hO44 Receptor, calculated from the Low/High ratio): 83% | Emax (hD3 (Homo sapiens)): 46% | Intrinsic Activity % (hD47): 98% | Ki (hD47; high affinity agonist state, [3H]-agonist ligand): 14.3 nM
SMILES: CCCN1CCCC(c2cccc(O)c2)C1 (single isomer, unassigned; (-)) [(−)-3-PPP, (−)3-(3-hydroxyphenyl)-N-n-propylpiperidine]
Duration of efficacy (schizophrenia [2]; antipsychotic efficacy before tolerance): up to 7 days | Effect on L-DOPA-induced dyskinesia [3]: improves L-DOPA-induced dyskinesia in Parkinson's disease | Change of intrinsic activity with increasing concentrations of haloperidol (D2 receptor; varying concentrations of haloperidol, FIG. 1): linear reduction in the intrinsic activity | Antipsychotic effect over the trial ([4]; (−)-3PPP 300 mg bid plus haloperidol 1 mg bid, two weeks): extended longer for the entire two week period of the trial without evidence of tolerance | Change in Total BPRS Score, mean ([4]; Day 3): −1.4 | Change in Total BPRS Score, mean ([4]; Day 7): −3.4 | Change in Total BPRS Score, mean ([4]; Day 11): −3.3 | Change in Total BPRS Score, mean ([4]; Day 14): −4.6 | Acute motor side effects (schizophrenia [5]; clinical application in schizophrenia): not accompanied by any acute motor side effect | Duration of antipsychotic action (schizophrenia [5]; continuous dosing, agonist alone): approximately one week

Intrinsic Activity (hO44 Receptor; [7]): 55%
SMILES: CN1CCc2cccc3c2[C@@H]1Cc1ccc(O)c(O)c1-3 [(+)-Apo]

SMILES: CCCN1CCc2cccc3c2[C@@H]1Cc1ccc(O)c(O)c1-3 [(+)-NPA]
Intrinsic Activity [1]: 61% | Intrinsic Activity (hO44 Receptor; [7]): 58% | Ki (hO44 Receptor; read-out: Ki (nM) ± S.D.): 2.3 ± 2 nM

Intrinsic Activity (hO44 Receptor; [7]): 80%
SMILES: CN1CCc2cccc3c2[C@H]1Cc1ccc(O)c(O)c1-3 [(−)-Apo]

Intrinsic Activity [1]: 94% | Ratio Low/High [1]: 145 | Ki [1]: 0.08 ± 0.04 nM | Intrinsic Activity (hO44 Receptor; [7]): 88% | Ratio Low/High (hO44 Receptor): 106 | Ki (hO44 Receptor; read-out: Ki (nM) ± S.D.): 1.1 ± 0.7 nM
SMILES: CCCN(CCc1cccs1)[C@H]1CCc2c(O)cccc2C1 [(−)-N-0437]

SMILES: CCCN1CCc2cccc3c2[C@H]1Cc1ccc(O)c(O)c1-3 [(−)-NPA]
Intrinsic Activity [1]: 100% | Intrinsic Activity (hO44 Receptor; [7]): 57% | Ki (hO44 Receptor; read-out: Ki (nM) ± S.D.): 0.6 ± 0.2 nM

SMILES: CN1CCc2cccc3c2[C@H]1Cc1ccc(O)c(O)c1-3 [Apomorphine, apomorphine]
Effect on tardive dyskinesia (tardive dyskinesia): paradoxically improves tardive dyskinesia, both significantly and substantially

SMILES: CN1C[C@H](CSc2ccccn2)C=C2c3cccc4[nH]cc(c34)C[C@H]21 [CF25-397]
Antipsychotic (schizophrenia [6]): 0 | Effect on tardive dyskinesia (tardive dyskinesia): modestly improved dyskinetic symptoms in TD

SMILES: CN1C[C@H](CN2CC(=O)NC(=O)C2)C=C2c3cccc4[nH]cc(c34)C[C@H]21 [FCE-23884]
Intrinsic Activity (hD21 Receptor): 37.0% | Ki (hD21 Receptor; read-out: Ki (HiAg State), high affinity agonist state): 0.4 nM | Ki (hD21 Receptor; read-out: Ki (LowAg State), low affinity agonist state): 2.17 nM

SMILES: O=C(CCCN1CCC(O)(c2ccc(Cl)cc2)CC1)c1ccc(F)cc1 [Haloperidol, haloperidol]
Change in Total BPRS Score, mean ([4]; Day 3): −1.0 | Change in Total BPRS Score, mean ([4]; Day 7): −0.2 | Change in Total BPRS Score, mean ([4]; Day 11): −0.1 | Change in Total BPRS Score, mean ([4]; Day 14): −1.1

SMILES: CCCN1CCc2cccc3c2[C@H]1Cc1ccc(O)c(O)c1-3 [NPA, n-propylnorapomorphine]
Efficacy tolerance observed after (schizophrenia [2]; antipsychotic efficacy tolerance): 24 h

SMILES: c1cnc(N2CCN(Cc3ccc4c(c3)OCO4)CC2)nc1 [Piribedil (S584), piribedil]
Antipsychotic (schizophrenia [6]): 0 | Effect on tardive dyskinesia (tardive dyskinesia): modestly improved dyskinetic symptoms in TD

From patent US20010056101A1 (priority 1998, published 2001)
